Structures can show the parent of a compound that is named as a salt.
Key:
[1] = system: Proteus mirabilis ON153; assay: Checkerboard FBEC index, 48-h biofilm; type: cell-based; settings: P. mirabilis ON153 biofilm; EDTA + chlorhexidine HCl
Protocol: (§4) In step (4), microtiter plates are incubated at 37° C. for 24 h. then (6), after incubation, the bacterial and fungal cells were dislodged from the pegs into the recovery medium described above.
(§5) Three 10-μL aliquots, for a total of 30 μL from each well of recovery medium, were spotted on MH agar plates and incubated for 24 h at 37° C. […] The FBEC determination is a modification of the FICI.

[2] = system: E. coli SK2; assay: MBC/MFC determination; type: cell-based, Escherichia coli; settings: agent alone
Protocol: (§1) An assay was made using a minimum inhibitory concentration (MIC) and minimum bactericidal concentration (MBC) and minimum fungicidal concentration (MFC) determination. The MIC was determined by the micro broth dilution method in 96-well plates. Serial two-fold dilutions of tetrasodium EDTA (from 2% to 0.015%), ethanol (from 50% to 0.1%) and chlorhexidine HCl (from 100 μg/mL to 0.025 μg/mL) were prepared in MH broth with a final volume of 90 μL per well. A 10 μL containing 1×10^5 bacterial cells or 2×10^3 fungal cells were added to each well. The inoculated plates were covered with a lid, sealed with Parafilm, and incubated for 24 h at 37° C. with slight rocking on a tilting platform shaker. After incubation, the optical density at 600 nm (OD 600) of the cultures in each well was measured using an xMark™ Microplate Absorbance Spectrophotometer (Bio-Rad). […] MBCs and MFCs were determined by transferring 100 μL from each well with no apparent growth onto appropriate agar plates, followed by incubation for 24 h at 37° C.

[3] = system: MRSA ON184; assay: MBEC assay, 48-h biofilm; type: cell-based, Staphylococcus aureus; settings: MRSA ON184 48-h biofilm; 24 h exposure
Protocol: (§2) A biofilm cultivation cell composition was provided. This fifth composition was created using an MBEC Assay® biofilm inoculator, consisting of a polystyrene lid with 96 downward-protruding pegs and a corresponding base used to grow biofilms. A standardized inoculum was diluted in an appropriate biofilm growth medium to achieve a viable cell count of 1.5×10^6 CFU/mL of bacterial cells or 5×10^5 CFU/mL of fungal cells. Then, 150 μL of this inoculum was transferred into each appropriate well, and the peg lids were inserted into the microtiter plates. The plates were sealed with Parafilm and were incubated at optimum temperature for 48 h with slight rocking for bacteria and shaking at 200 rpm for fungal strains. After incubation, the peg lid was removed from the base and rinsed twice with sterile phosphate-buffered saline (PBS) for 2 min to remove loosely attached non-sessile cells. Before the antimicrobial challenge, the pegs in column 1 (n=8) were considered the biofilm growth control; these pegs were removed from the lids, placed into 200 μL of recovery medium, and analyzed for starting biofilm cell numbers as described below. […] MBEC values were determined as the minimum concentration of antimicrobials that yielded a viable cell count at or lower than the 125 CFU/mL detection limit.

[4] = system: MRSA ON184; assay: MIC, micro broth dilution; type: cell-based, Staphylococcus aureus; settings: agent alone
Protocol: as §1

[5] = system: E. coli SK2; assay: MIC, micro broth dilution; type: cell-based, Escherichia coli; settings: agent alone
Protocol: as §1

[6] = system: Staphylococcus epidermidis SK9; assay: MBEC assay, 48-h biofilm; type: cell-based; settings: S. epidermidis SK9 48-h biofilm; 24 h exposure
Protocol: (§3) A biofilm cultivation cell composition was provided. This fifth composition was created using an MBEC Assay® biofilm inoculator, consisting of a polystyrene lid with 96 downward-protruding pegs and a corresponding base used to grow biofilms. A standardized inoculum was diluted in an appropriate biofilm growth medium to achieve a viable cell count of 1.5×10^6 CFU/mL of bacterial cells or 5×10^5 CFU/mL of fungal cells. Then, 150 μL of this inoculum was transferred into each appropriate well, and the peg lids were inserted into the microtiter plates. The plates were sealed with Parafilm and were incubated at optimum temperature for 48 h with slight rocking for bacteria and shaking at 200 rpm for fungal strains. After incubation, the peg lid was removed from the base and rinsed twice with sterile phosphate-buffered saline (PBS) for 2 min to remove loosely attached non-sessile cells. Before the antimicrobial challenge, the pegs in column 1 (n=8) were considered the biofilm growth control; these pegs were removed from the lids, placed into 200 μL of recovery medium, and analyzed for starting biofilm cell numbers as described below. The rinsed pegs were placed into new 96-well plates containing two-fold dilutions of antimicrobials such as tetrasodium EDTA (4%-0.0125%), ethanol (100%-0.2%), and chlorhexidine HCl (100 μg/mL-0.4 μg/mL) in 200 μL of suitable biofilm growth medium per well and incubated at optimum temperature for 24 h. After the antimicrobial challenge, the pegs were rinsed twice with sterile PBS for 2 min and placed into a new 96-well plate containing 200 μL of recovery medium. The recovery plates were sealed with Parafilm, and biofilm cells were dislodged from the pegs by sonication for 30 min with a Branson 3510 bath sonicator. The biofilm cells in the recovery medium were serially diluted, and a drop dilution assay was performed to enumerate the viable cells. MBEC values were determined as the minimum concentration of antimicrobials that yielded a viable cell count at or lower than the 125 CFU/mL detection limit.

[7] = system: Candida albicans SK4b; assay: MBEC assay, 48-h biofilm; type: cell-based; settings: C. albicans SK4b 48-h biofilm; 24 h exposure
Protocol: as §3

[8] = system: Escherichia coli SK2; assay: MBEC assay, 48-h biofilm; type: cell-based; settings: E. coli SK2 48-h biofilm; 24 h exposure
Protocol: as §3

[9] = system: Proteus mirabilis ON153; assay: MBEC assay, 48-h biofilm; type: cell-based; settings: P. mirabilis ON153 48-h biofilm; 24 h exposure
Protocol: as §3

[10] = system: Pseudomonas aeruginosa SK1; assay: MBEC assay, 48-h biofilm; type: cell-based; settings: P. aeruginosa SK1 48-h biofilm; 24 h exposure
Protocol: as §3

[11] = system: Staphylococcus aureus ON89; assay: MBEC assay, 48-h biofilm; type: cell-based; settings: S. aureus ON89 48-h biofilm; 24 h exposure
Protocol: as §3

[12] = system: MRSA ON184; assay: Checkerboard FBEC index, 48-h biofilm; type: cell-based, Staphylococcus aureus; settings: EDTA + chlorhexidine HCl
Protocol: as §4, §5

[13] = system: C. albicans ON47; assay: MBEC assay, 48-h biofilm; type: cell-based, Candida albicans; settings: C. albicans ON47 48-h biofilm; 24 h exposure
Protocol: as §2

[14] = system: MRSA ON184; assay: MBC/MFC determination; type: cell-based, Staphylococcus aureus; settings: agent alone
Protocol: as §1

[15] = system: S. epidermidis SK9; assay: MBC/MFC determination; type: cell-based, Staphylococcus epidermidis; settings: agent alone
Protocol: as §1

[16] = system: C. albicans ON47; assay: Checkerboard FBEC index, 48-h biofilm; type: cell-based, Candida albicans; settings: EDTA + chlorhexidine HCl
Protocol: as §4
Three 10-μL aliquots, for a total of 30 μL from each well of recovery medium, were spotted on MH agar plates and incubated for 24 h at 37° C.

## [H]/N=C(\N/C(=N/[H])NCCCCCCNC(=N)NC(=N)Nc1ccc(Cl)cc1)Nc1ccc(Cl)cc1 [Chlorhexidine HCl, chlorhexidine HCl, reference compound]
[1]
  Biofilm eradication concentration in combination (FBEC): 3.125 µg/mL

## O=C([O-])CN(CCN(CC(=O)[O-])CC(=O)[O-])CC(=O)[O-].[Na+].[Na+].[Na+].[Na+] [EDTA, tetrasodium EDTA]
[2]
  MBC/MFC: 0.5 % w/v
[3]
  MBEC: 2 % w/v
[4]
  MIC: 0.063 % w/v
[5]
  MIC: 0.5 % w/v
[6]
  MBEC: 2 % w/v
[7]
  MBEC: 1 % w/v
[8]
  MBEC: 2 % w/v
[9]
  MBEC: 4 % w/v
[10]
  MBEC: 4 % w/v
[11]
  MBEC: 4 % w/v
[12]
  Biofilm eradication concentration in combination (FBEC): 0.031 % w/v
[13]
  MBEC: 1 % w/v
[14]
  MBC/MFC: 2 % w/v
[15]
  MBC/MFC: 0.5 % w/v
[16]
  Biofilm eradication concentration in combination (FBEC): 0.031 % w/v

Reference: patent publication US20230263758A1, “COMPOSITIONS OF EDTA HAVING ACTIVITY AGAINST PLANKTONIC AND BIOFILM CELLS OF CLINICALLY RELEVANT PATHOGENS” (SterileCare Inc., priority 2022, published 2023)
